Test results reported in US11111227B2, “Rotigotine behenate, and manufacturing method and application thereof” (Shandong Luye Pharmaceutical Co., Ltd., priority 2016, dated 2021).

Experiments:
[1] = Test Example 3: pharmacokinetic performance of each drug injection in rats (intramuscular); format: in vivo
Protocol: Test Example 3: Pharmacokinetic Performance of Each Drug Injection in Rats
Male SD rats (provided by Shandong Luye Pharma Group Ltd.), weighing 190-280 g, 12 rats, 3 rats in each group.
Vehicle containing 1% of HPMC was prepared, and rotigotine arachidate, rotigotine behenate and rotigotine lignocerate were added to the vehicle respectively to provide 10 mg/ml of suspensions (calculated as rotigotine).
The experimental animals were randomly divided into rotigotine arachidate group (A), rotigotine behenate group (B) and rotigotine lignocerate group (C), with 3 rats in each group, The rats in Groups A, B and C were intramuscularly injected with the corresponding drug (2 ml/kg).
(§1) Blood samples were taken from the eyelids of the rats in Groups A, B, and C before the administration (0 h) and at 0.25 h, 1 h, 6 h, 1 d, 2 d, 3 d, 5 d, 7 d, 9 d, 11 d, 14 d, 16 d, 18 d, 21 d, 25 d, 28 d, 30 d, 35 d, 39 d, 42 d after administration. Each blood sample was placed into heparinized EP tube, and was immediately centrifuged (3000 rpm) for 10 min. The plasma was separated and stored at −35° C. for testing.

[2] = Test Example 1: pharmacokinetic performance of rotigotine caprylate injection in rats (intramuscular); format: in vivo
Protocol: Test Example 1: Pharmacokinetic Performance of Rotigotine Caprylate Injection in Rats
Rotigotine caprylate: prepared according to Comparative Example 1
Male SD rats (provided by Shandong Luye Pharma Group Ltd.), weighing 190-280 g, 3 rats.
Vehicle containing 1% of HPMC was prepared, and rotigotine caprylate was added to the vehicle to provide a 10 mg/ml of suspension (calculated as rotigotine). Three rats were intramuscularly injected with 2 mL/kg of the drug. Blood samples were taken from the eyelids of the rats before the administration (0 h) and at 0.25 h, 1 h, 6 h, 1 d, 2 d, 3 d, 5 d, 7 d, 9 d, 11 d, 14 d, 16 d, 18 d, 21 d, 24 d, 28 d after administration. Each blood sample was placed into heparinized EP tube, and was immediately centrifuged (3000 rpm) for 10 min. The plasma was separated and stored at −35° C. for testing.

[3] = Test Example 2: pharmacokinetic performance of each drug injection in rats (intramuscular, groups A-C); format: in vivo
Protocol: Test Example 2: Pharmacokinetic Performance of Each Drug Injection in Rats
(§2) Experimental animals: Male SD rats (provided by Shandong Luye Pharma Group Ltd.), weighing 190-280 g, 12 rats in total, 3 rats in each group.
(§3) Vehicle containing 1% of HPMC was prepared, and rotigotine oleate, rotigotine palmitate and rotigotine stearate were added to the vehicle respectively to provide 10 mg/ml of suspensions (calculated as rotigotine). Rotigotine hydrochloride was formulated as a 0.36 mg/ml injection (calculated as rotigotine) in normal saline.
(§4) The experimental animals were randomly divided into rotigotine oleate group (A), rotigotine palmitate group (B), rotigotine stearate group (C) and rotigotine hydrochloride group (D), with 3 rats in each group. The rats in Groups A, B, and C were intramuscularly injected with the corresponding drug (2 ml/kg), and the rats in group D were injected intravenously with the corresponding drug (2 ml/kg).
as §1, with “d, 24” for “d, 25”, “28” for “28 d, 30 d, 35 d, 39 d, 42”, “Each” for “Each blood”

[4] = Test Example 2: rotigotine hydrochloride intravenous injection in rats (group D); format: in vivo; details: male, SD, rat, plasma, rotigotine hydrochloride intravenous 2 ml/kg of 0.36 mg/ml injection, read-out: Blood concentration in rats
Protocol: Rotigotine hydrochloride: purity of 99.83%
as §2, §3, §4
Blood samples were taken from the eyelids of the rats in Group D before the administration (0 h) and at 3 min, 10 min, 0.25 h, 0.5 h, 1 h, 1.5 h, 2 h, 4 h, 6 h, 8 h, and 12 h after administration. Each blood sample was placed into heparinized EP tube, and was immediately centrifuged (3000 rpm) for 10 min. The plasma was separated and stored at −35° C. for testing.

[5] = first-pass effect of the liver; cited from earlier work

Structure (SMILES): CCCCCCCCCCCCCCCCCCCC(=O)Oc1cccc2c1CCC(N(CCC)CCc1cccs1)C2 (stereo not shown) [Rotigotine arachidate]
- Maintenance of the effective blood concentration [1]: maintained only for a short period of time

Structure (SMILES): CCCCCCCCCCCCCCCCCCCCCC(=O)Oc1cccc2c1CC[C@H](N(CCC)CCc1cccs1)C2 [Rotigotine behenate]
- Maintenance of the effective blood concentration [1]: more than two weeks

Structure (SMILES): CCCCCCCC(=O)Oc1cccc2c1CC[C@H](N(CCC)CCc1cccs1)C2 [Rotigotine caprylate]
- Maintenance of the effective blood concentration [2]: maintained only for a short period of time

Structure (SMILES): CCCCCCCCCCCCCCCCCCCCCCCC(=O)Oc1cccc2c1CCC(N(CCC)CCc1cccs1)C2 (stereo not shown) [Rotigotine lignocerate]
- Maintenance of the effective blood concentration [1]: cannot be maintained for more than two weeks

Structure (SMILES): CCCCCCCC/C=C\CCCCCCCC(=O)Oc1cccc2c1CCC(N(CCC)CCc1cccs1)C2 (stereo not shown) [Rotigotine oleate]
- Maintenance of the effective blood concentration [3]: maintained only for a short period of time

Structure (SMILES): CCCCCCCCCCCCCCCC(=O)Oc1cccc2c1CCC(N(CCC)CCc1cccs1)C2 (stereo not shown) [Rotigotine palmitate]
- Maintenance of the effective blood concentration [3]: no more than two weeks

Structure (SMILES): CCCCCCCCCCCCCCCCCC(=O)Oc1cccc2c1CCC(N(CCC)CCc1cccs1)C2 (stereo not shown) [Rotigotine stearate]
- Maintenance of the effective blood concentration [3]: no more than two weeks

Structure (SMILES): CCCN(CCc1cccs1)[C@H]1CCc2c(O)cccc2C1 [Rotigotine]
- concentration at 1 h ([4]; 0.72 mg/kg (calculated as rotigotine), 1 h): 12.1 ng/mL
- concentration at 1.5 h ([4]; 0.72 mg/kg (calculated as rotigotine), 1.5 h): 7.25 ng/mL
- concentration at 2 h ([4]; 0.72 mg/kg (calculated as rotigotine), 2 h): 4.71 ng/mL
- concentration at 0 h ([4]; 0.72 mg/kg, 0 h (before administration)): 0 ng/mL
- concentration at 0.05 h ([4]; 0.72 mg/kg, 0.05 h): 82.5 ng/mL
- concentration at 0.17 h ([4]; 0.72 mg/kg, 0.17 h): 43.8 ng/mL
- concentration at 0.25 h ([4]; 0.72 mg/kg, 0.25 h): 45.4 ng/mL
- concentration at 0.5 h ([4]; 0.72 mg/kg, 0.5 h): 29 ng/mL
- concentration at 4 h ([4]; 0.72 mg/kg, 4 h): 0.99 ng/mL
- concentration at 8 h ([4]; 0.72 mg/kg, 8 h): 0.16 ng/mL
- concentration at 12 h ([4]; 0.72 mg/kg, 12 h): 0.04 ng/mL
- Oral bioavailability [5]: 1%-5%
